Consider 1 compound from patent US20250325508A1, “MODULATORS OF PROTEASOME DYNAMICS AND/OR FUNCTION, COMPOSITIONS, METHODS, AND THERAPEUTIC USES THEREOF” (TECHNION RESEARCH & DEVELOPMENT FOUNDATION LIMITED, priority 2022, published 2025).

The target of one assay is T1, exportin1 (Homo sapiens, UniProt O14980).
T1 construct: endogenous in cells; host or cells: HeLa
The experiment in a line: Localization of exportin1 substrates (p65, APC, NES-GFP). Format: cell-based. To be noted: HeLa cells. As to the method:
Cells were seeded on glass cover slips for 36 h. Following the indicated treatments, they were fixed with 4% PFA for 15 min, washed with phosphate-buffered saline (PBS) and incubated in PBS containing 10% goat serum for 1 h at room temperature, followed by 2 h incubation with the indicated primary antibody. Following extensive wash with PBS, the fixed cells were incubated with the relevant secondary antibody for 1 h, washed and mounted. Images were acquired using Zeiss LSM 700 confocal microscope (Zeiss, Oberkochen, Germany).

Assay [1] deals with HeLa cells. The experiment in a line: Degradation of radiolabeled proteins. It is filed as cell-based, human. To be noted: short-term starvation. The procedure:
Cells were labeled with [^35S]-methionine and cysteine (20 μCi/ml) for 16 h. This was followed by extensive washing and further incubation in a medium containing 2 mM of the two unlabeled amino acids for 8 h. Degradation rates were assessed by determining the release of labeled amino acids to the incubation medium relative to the radioactivity remained in the cellular proteins (using Trichloroacetic acid precipitation to separate between the two) [R. Gropper et al., Biomed Biochim Acta 50, 321-332 (1991)]. The figure presents mean+/−SD and Student's T-Test p-values of three replicates.

A further assay relates to proteasome. Nature of the assay: Live imaging of proteasome activity probe Me4BodipyFL-Ahx3Leu3VS. It is filed as cell-based, human. To be noted: addition to the starvation medium, HeLa cells. The procedure: Live cell proteasome activity was followed as previously described [C. R. Berkers et al., Mol Pharm 4, 739-748 (2007)]. In brief, Me4BodipyFL-Ahx3Leu3VS was added to the medium to a final concentration of 1 μM. Following incubation for 15 min, the cells were visualized by a Zeiss LSM 700 confocal microscope. In vitro proteasome activity assay was carried out as previously described [O. Braten et al., Proc. Natl. Acad. Sci. 113, E4639-47 (2016)]. In brief, cellular fractions were incubated at 37° C. for 30 min with 5 μM Suc-LLVY-AMC (Succinyl-Leu-Leu-Val-Tyr-amido-4-methylcoumarin) in a reaction buffer (40 mM Tris-HCl pH 7.2, 2 mM DTT, 5 mM MgCl2, 10 mM creatine phosphate, 0.1 mg/ml creatine phosphate kinase, 5 mM ATP). Reactions were stopped by adding 1% SDS, and fluorescence was measured at 360/460 nm (ex/em).

For assay [2], the system named is HeLa cells. The experiment in a line: Proteomic mass-spectrometric analysis of cellular protein levels. To be noted: St.+LMB or St.+YWF vs Cont. It is filed as cell-based, human. As to the method:
2-3 mg of cell extract protein in 8 M Urea and 100 mM ammonium bicarbonate, were incubated with DTT (2.8 mM; 30 min at 60° C.), modified with iodoacetamide (8.8 mM; 30 min at room temperature in the dark), and digested (overnight at 37° C.) with modified trypsin (Promega; 1:50 enzyme-to-substrate ratio) in 2 M Urea and 25 mM ammonium bicarbonate. Additional second trypsinization was carried out for 4 h. The tryptic peptides were desalted using Sep-Pak C18 (Waters) and dried. 10 μg of protein were used for proteome analysis as described under Mass spectrometry.
Tryptic peptides were analyzed by LC-MS/MS using a Q Exactive plus mass spectrometer (Thermo Fisher Scientific) fitted with a capillary HPLC (easy nLC 1000, Thermo). […]
The mass spectrometry raw data were analyzed by the MaxQuant software (version 1.4.1.2, http://www.maxquant.org) for peak picking and quantification. […] The MaxQuant software was used for label-free semi-quantitative analysis [based on extracted ion currents (XICs) of peptides], enabling quantification from each LC/MS run for each peptide identified in any of the experiments. In samples that were SILAC-labeled, quantification was also carried out using the MaxQuant software. […]

Assay [3] relates to HeLa cells. The experiment in a line: Amino acids level measurement (LC-MS). Format: cell-based, human. The procedure: Metabolic analysis was carried out as previously described [G. M. MacKay et al., 1st Ed. (Elsevier Inc., 2015)]. Briefly, cells were rapidly washed 3 times with ice-cold PBS and extracted with an aqueous solution of 50% Methanol, and 30% Acetonitrile. Samples were centrifuged at 16,000×g for 10 min at 4° C., and the supernatants were analyzed using HPLC-MS (Q-Exactive Orbitrap Mass Spectrometer (Thermo Scientific) coupled to Thermo Scientific UltiMate 3000 HPLC system). The HPLC setup consisted of a ZIC-PHILIC column (SeQuant, 150×2.1 mm, 5 μm, Merck) with a ZIC-PHILIC guard column (SeQuant, 20×2.1 mm). The aqueous mobile phase solvent was 20 mM ammonium carbonate adjusted to pH 9.4 with 0.1% ammonium hydroxide. The organic mobile phase was acetonitrile. Amino acids and other metabolites were separated over a 15 min linear gradient from 80% organic to 80% aqueous. The column temperature was 45° C., the flow rate 200 μl/min, and the run time 27 min. All metabolites were detected across a mass range of 75-1,000 m/z using the Q-Exactive mass spectrometer at a resolution of 35,000 (at 200 m/z) with electrospray ionization and polarity switching mode. Mass accuracy obtained for all metabolites was below 5 ppm. Data were acquired with Thermo Xcalibur software. The peak areas of different amino acids were determined using Thermo TraceFinder software through which metabolites were identified by the exact mass of the singly charged ion and the known retention time on the HPLC column. Commercially available standard compounds had been analyzed before to determine ion masses and retention times on the ZIC-PHILIC column. Protein quantitation based on the Lowry method was performed for normalization. The figure presents mean+/−SD of three replicates.

Molecules are shown by their SMILES.

T1 sequence (O14980 whole entry): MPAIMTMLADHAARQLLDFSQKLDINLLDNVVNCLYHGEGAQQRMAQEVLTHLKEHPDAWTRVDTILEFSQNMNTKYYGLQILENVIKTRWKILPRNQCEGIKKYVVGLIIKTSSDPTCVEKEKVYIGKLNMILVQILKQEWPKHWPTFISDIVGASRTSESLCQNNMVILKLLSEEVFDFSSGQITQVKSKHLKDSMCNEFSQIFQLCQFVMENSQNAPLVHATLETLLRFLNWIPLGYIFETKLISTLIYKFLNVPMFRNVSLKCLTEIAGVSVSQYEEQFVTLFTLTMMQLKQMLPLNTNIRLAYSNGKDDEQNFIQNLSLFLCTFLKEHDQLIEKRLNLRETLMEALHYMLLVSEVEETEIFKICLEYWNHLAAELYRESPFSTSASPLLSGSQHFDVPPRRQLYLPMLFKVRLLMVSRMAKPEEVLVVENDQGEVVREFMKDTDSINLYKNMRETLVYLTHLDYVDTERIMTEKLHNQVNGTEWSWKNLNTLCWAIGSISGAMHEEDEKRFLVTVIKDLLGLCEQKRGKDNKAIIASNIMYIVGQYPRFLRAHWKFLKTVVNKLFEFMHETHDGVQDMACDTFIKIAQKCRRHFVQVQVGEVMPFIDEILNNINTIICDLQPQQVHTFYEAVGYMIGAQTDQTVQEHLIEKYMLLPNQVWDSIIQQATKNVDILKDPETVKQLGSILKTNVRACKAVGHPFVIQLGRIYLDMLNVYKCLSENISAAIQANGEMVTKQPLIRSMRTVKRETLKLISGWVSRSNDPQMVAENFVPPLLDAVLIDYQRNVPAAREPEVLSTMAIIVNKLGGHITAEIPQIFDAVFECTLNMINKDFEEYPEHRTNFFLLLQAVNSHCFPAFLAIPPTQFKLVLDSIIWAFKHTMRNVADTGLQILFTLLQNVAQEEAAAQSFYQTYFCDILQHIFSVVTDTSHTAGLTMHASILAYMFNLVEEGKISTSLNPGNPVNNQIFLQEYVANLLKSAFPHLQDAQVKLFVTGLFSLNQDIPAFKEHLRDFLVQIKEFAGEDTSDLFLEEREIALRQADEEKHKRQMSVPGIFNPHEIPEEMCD

For `CCC(=C/[C@H](C)C/C=C/C(C)=C/[C@@H](C)C(=O)[C@@H](C)[C@H](O)[C@@H](C)C/C(C)=C/C(=O)O)/C=C/[C@@H]1OC(=O)C=C[C@@H]1C` [Leptomycin B], the “nuclear export/localization of exportin1 substrates p65 subunit of NF-κB and APC” value at exportin1 is “inhibited nuclear export of two known substrates of exportin1”. Besides, the “localization of GFP fused to a nuclear export signal (NES)” value on exportin1 (8 h) is “nuclear accumulation of GFP fused to a nuclear export signal (NES)”. In addition, in the assay with HeLa cells [1], the “protein breakdown (degradation of radiolabeled proteins)” value is reported as “near annulment of protein breakdown stimulated by short-term starvation”. The “localization of proteasomal activity (nucleus vs cytosol)” value with proteasome is given as “preventing the shift in its dominance from the nucleus to the cytosol”. Further, in the assay on HeLa cells [2], the “accelerated degradation of cellular proteins upon starvation” value is “accelerated degradation was prevented”. Also, in the assay with HeLa cells [3] (Torin1 plus LMB), the “gain in amino acids produced by Torin1” value is given as “significantly inhibited the gain in amino acids produced by Torin1”. Moreover, in the assay on HeLa cells [3] (addition of LMB to Torin1-treated cells), the “level of Glu” value is “unaffected”.
